Here are results for one molecule from ChEMBL document CHEMBL4419178, “Yap1 inhibitors that target the interaction of yap1 with oct4” (2018).

The source made the active and inactive calls. The rule behind the calls is not given here.

One may read the inhibition as the percentage by which the read-out fell short of the control. A word on the logP: it is a log measure of how a compound divides between an organic and an aqueous phase. Read a low logP as a more hydrophilic compound.

The test system of data set [1] is NCI-H1650. Briefly: Inhibition of YAP1 in human NCI-H1650 cells assessed as disruption in YAP1/TEAD2 interaction at 20 to 50 uM incubated for 48 hrs by proximity ligation assay. The class given is cell-based.
Data set [2] relates to NCI-H1650. Put plainly: Cytotoxicity in human NCI-H1650 cells assessed as induction of cell killing in presence of cancer associated fibroblasts at 20 to 50 uM incubated for 24 to 48 hrs by cytotracker-red/green dye staining based immunofluorescence microscopy. The class given is functional.
The subject of data set [3] is NCI-H1650. Briefly: Cytotoxicity in human NCI-H1650 cells assessed as reduction in cell viability at 20 to 50 uM incubated for 72 hrs by MTT assay. The format is functional, cell-based. (In general: Tetrazolium dyes change colour on reduction, which living cells bring about.)
Data set [4] deals with NCI-H1650. Put plainly: Inhibition of self-renewal capacity in stem-like side-population cells of human NCI-H1650 cells assessed as reduction in number of spheres at 5 to 50 uM incubated for 10 days by sphere formation assay. The class given is functional, cell-based.
For data set [5], the target named is Transcriptional coactivator YAP1 (Homo sapiens) (UniProt P46937). Put plainly: Inhibition of YAP1 in human NCI-H1650 cells assessed as disruption in YAP1/OCT4 interaction at 20 to 50 uM incubated for 48 hrs by proximity ligation assay. The class given is cell-based.
The nature of data set [6]: Lipophilicity, logP of the compound. The class given is physicochemical. Particulars: octanol/water.
Data set [7] has as its target Transcriptional coactivator YAP1 (Homo sapiens) (UniProt P46937). Briefly: Inhibition of YAP1 (unknown origin) assessed as disruption in YAP1/OCT4 interaction at 10 uM by ELISA relative to control.
The test system of a further data set is NCI-H2170. Put plainly: Cytotoxicity in human NCI-H2170 cells assessed as reduction in cell viability at 5 to 50 uM incubated for 96 hrs by MTT assay. The class given is functional, cell-based.
In data set [8] the test system is NCI-H1650. Briefly: Cytotoxicity in human NCI-H1650 cells assessed as reduction in cell viability at 20 to 50 uM incubated for 24 hrs followed by medium replacement with RPMI medium with 10% FCS for 48 hrs by MTT assay. The format is functional, cell-based.
The subject of data set [9] is NCI-H1650. Put plainly: Cytotoxicity in human NCI-H1650 cells assessed as reduction in cell viability at 1 to 20 uM incubated for 72 hrs by MTT assay. The format is functional, cell-based.
The next data set deals with NCI-H2286. Briefly: Cytotoxicity in human NCI-H2286 cells assessed as reduction in cell viability at 5 to 50 uM incubated for 96 hrs by MTT assay. The format is functional, cell-based.
The next data set has as its system A549. Put plainly: Cytotoxicity in human A549 cells assessed as reduction in cell viability at 1 to 20 uM incubated for 72 hrs by MTT assay. The format is functional, cell-based.
The target in data set [10] is Transcriptional coactivator YAP1 (Homo sapiens) (UniProt P46937). Put plainly: Inhibition of YAP1 (unknown origin) assessed as disruption in YAP1/OCT4 interaction at 50 uM by cell based assay.
Data set [11] can be described thus: Cytotoxicity in human cancer associated fibroblasts at 20 to 50 uM incubated for 24 to 48 hrs by cytotracker-red/green dye staining based immunofluorescence microscopy.

Transcriptional coactivator YAP1 (Homo sapiens), sequence (P46937 whole entry): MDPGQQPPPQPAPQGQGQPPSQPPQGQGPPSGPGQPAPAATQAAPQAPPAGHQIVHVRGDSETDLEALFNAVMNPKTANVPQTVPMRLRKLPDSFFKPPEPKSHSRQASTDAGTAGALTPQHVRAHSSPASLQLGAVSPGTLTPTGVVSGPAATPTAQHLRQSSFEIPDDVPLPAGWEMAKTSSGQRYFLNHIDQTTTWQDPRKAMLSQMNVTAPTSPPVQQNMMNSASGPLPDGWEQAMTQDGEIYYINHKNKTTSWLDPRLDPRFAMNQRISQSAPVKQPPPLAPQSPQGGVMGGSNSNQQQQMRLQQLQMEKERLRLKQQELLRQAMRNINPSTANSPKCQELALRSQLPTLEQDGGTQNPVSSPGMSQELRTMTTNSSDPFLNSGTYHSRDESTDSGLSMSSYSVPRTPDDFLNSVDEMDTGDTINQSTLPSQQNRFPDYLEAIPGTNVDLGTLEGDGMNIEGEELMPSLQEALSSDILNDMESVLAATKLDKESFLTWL

As for `COC(=O)[C@H](Cc1ccc(OCc2ccccc2)cc1)NC(=O)CC1CCN(C(=O)CCc2ccccc2)CC1`, the inhibition entry (in the data set on NCI-H1650 [1]; in the data set on NCI-H1650 [4]; in data set [5]) was “Active” throughout. For the same molecule, the result with NCI-H1650 [2], in the data set with NCI-H1650 [3], in the data set with NCI-H2170, in the data set on NCI-H1650 [8], in the data set with NCI-H1650 [9] and in the data set with NCI-H2286 was Active. Besides, the result with A549 was Active. In data set [6], this molecule had a logP of 4.7. For the same molecule, the inhibition in data set [7] and in data set [10] was 90% throughout. Besides, the Activity entry in data set [11] was “Non-Toxic”.
